According to US20260199510A1, “AN ANTIBODY-DRUG CONJUGATE HAVING TWO OR MORE FUNCTIONAL SMALL MOLECULE COMPOUNDS FOR ENHANCED TREATMENT OF REFRACTORY DISEASES” (priority 2023, published 2026):

Experiments:
Type in all cases: cell-based
C4-2B cells = experiment: MTT assay of B7H3-ADCs against C4-2B tumor cells; conditions: 6000 cells, 96 h incubation
PC3-4H7 cells = experiment: MTT assay of B7H3-ADCs against PC3-4H7 tumor cells; conditions: 6000 cells, 96 h incubation
From the text: Parent cell line PC-3 from Nanjing Cobioer Biosciences Co., was introduced with plasmid coexpress both human PSMA and RFP-Neomycin fusion protein and plasmid coexpress human Steap1 and GFP-Blasticidin fusion protein. The high expression cells were selected by neomycin and Blasticidin, and the selected clone 4H7 having high expression of both PSMA and Steapl was verified by FACs and chosen for further use in vitro and in vivo study.
The cell lines used in the cytotoxicity assays were: C4-2B Cells which was obtained from ATCC through license agreement with MD Anderson Cancer Center, Houston, TX, USA. 22RV1, U87, NCI-N87, MKN-7, JIMT-1, SU86.86, SW1990, OVCAR-3, Calu-3, A431, AsPC-1, HCC827 and H1975 cells were purchased from ATCC, Nanjing Cobioer and The Cell Bank of Shanghai Institute of Biochemistry and Cell Biology, and the others. C4-2B and PC-3-4H7 are both Steap1 and PSMA antigen high express cells, but medium expressed of both B7H3 and DLL3 antigens. 22RV1 is low express cells for Steapl, PSMA, B7H3 and DLL3 antigens. U87 is glioblastoma (GBM) cells, NCI-N87 and MKN-7 cell line are stable models of the gastric epithelium. […] After it was shaken for 15 min, the absorbance was measured at 490 nm and 570 nm with a reference filter of 620 nm. The inhibition % was calculated according to the following equation: inhibition % =[1-(assay-blank)/(control-blank)]x 100.

22RV1 cells = experiment: MTT assay of B7H3-ADCs against 22RV1 tumor cells; conditions: Homo sapiens, 6000 cells, 96 h incubation
NCI-N87 cells = experiment: MTT assay of BsHer2-ADCs against NCI-N87 cells; conditions: Homo sapiens, BsHer2 (trastuzumab/pertuzumab)-ADCs, 5000 cells, 96 h incubation
MKN-7 cells = experiment: MTT assay of BsHer2-ADCs against MKN-7 cells; conditions: Homo sapiens, BsHer2 (trastuzumab/pertuzumab)-ADCs, 5000 cells, 96 h incubation
SW1990 cells = experiment: MTT assay of BsHer2-ADCs against SW1990 cells; conditions: Homo sapiens, BsHer2 (trastuzumab/pertuzumab)-ADCs, 5000 cells, 96 h incubation
SU86.86 cells = experiment: MTT assay of BsHer2-ADCs against SU86.86 cells; conditions: Homo sapiens, SU.86.86, BsHer2 (trastuzumab/pertuzumab)-ADCs, 5000 cells, 96 h incubation

CC(=O)O[C@H]1C(=O)[C@@]2(C)[C@H]([C@H](OC(=O)c3ccccc3)[C@]3(O)C[C@H](OC(=O)[C@H](O)[C@@H](NC(=O)c4ccccc4)c4ccccc4)C(C)=C1C3(C)C)[C@]1(OC(C)=O)CO[C@@H]1C[C@@H]2O [Paclitaxel]
IC50 (C4-2B cells): 1.59 nM
IC50 (PC3-4H7 cells): 2.03 nM
IC50 (22RV1 cells): 1.85 nM
IC50 (NCI-N87 cells): 0.76 nM
IC50 (MKN-7 cells): 10.2 nM
IC50 (SW1990 cells): 0.042 nM
IC50 (SU86.86 cells): 2.98 nM
